Source: ChEMBL document CHEMBL5620416, “Design, synthesis and development of a dual inhibitor of Topoisomerase 1 and poly (ADP-ribose) polymerase 1 for efficient killing of cancer cells” (Eur J Med Chem, 2023)
Active and inactive are the calls of the source. The rule behind the calls is not given here.

Tests used:
[1] = system: DNA topoisomerase 1/Deoxyribonucleic acid (Homo sapiens); assay: Induction of TOP1-DNA covalent complex stabilization in human HCT-116 cells at 10 to 20 uM after 2 hrs by RADAR assay; type: cell-based; conditions: dose 10-20 µM
[2] = system: DNA topoisomerase 1/Deoxyribonucleic acid (Homo sapiens); assay: Induction of TOP1-DNA covalent complex stabilization in human HCT-116 cells at 10 to 20 uM after 4 to 6 hrs by RADAR assay; type: cell-based; conditions: dose 10-20 µM, time 4-6 hrs
[3] = system: DNA topoisomerase 1/Deoxyribonucleic acid (Homo sapiens); assay: Induction of TOP1-DNA covalent complex degradation in human HCT-116 cells at 1 uM by RADAR assay; type: cell-based; conditions: time 2-24 hrs, TDE = time-dependent effect
[4] = system: HCT-116; assay: Induction of TOP1-DNA covalent complex PARlyation in human HCT-116 cells at 1 uM measured upto 24 hrs by RADAR assay; type: functional, cell-based
[5] = system: Calf thymus DNA; assay: Binding affinity to calf thymus pUC19 DNA assessed as intercalating activity by measuring conformational change in DNA at 50 to 100 uM incubated for 30 mins by EtBr staining based agarose gel electrophoresis; type: nucleic-acid assay; conditions: Bos taurus, dose 50-100 µM
[6] = system: HCT-116; assay: Cytotoxicity against human HCT-116 cells at greater than 10 uM incubated for 7 to 10 days by crystal violet staining based assay; type: functional, cell-based; conditions: time 7-10 day
[7] = system: PANC-1; assay: Cytotoxicity against human PANC-1 cells incubated for 72 hrs by MTT assay; type: functional, cell-based; conditions: PANC-1, 72 h
[8] = system: MIA PaCa-2; assay: Cytotoxicity against human MIA PaCa-2 cells at greater than 10 uM incubated for 7 to 10 days by crystal violet staining based assay; type: functional, cell-based; conditions: time 7-10 day
[9] = system: PANC-1; assay: Cytotoxicity against human PANC-1 cells at greater than 10 uM incubated for 7 to 10 days by crystal violet staining based assay; type: functional, cell-based; conditions: time 7-10 day
[10] = system: MIA PaCa-2; assay: Cytotoxicity against human MIA PaCa-2 cells incubated for 72 hrs by MTT assay; type: functional, cell-based; conditions: MIA PaCa-2, 72 h
[11] = system: HCT-116; assay: Cytotoxicity against human HCT-116 cells incubated for 72 hrs by MTT assay; type: functional, cell-based; conditions: HCT-116, 72 h
[12] = system: HCT-116; assay: Cytotoxicity against human HCT-116 cells at less than 10 uM incubated for 7 to 10 days by crystal violet staining based assay; type: functional, cell-based; conditions: time 7-10 day
[13] = system: MIA PaCa-2; assay: Cytotoxicity against human MIA PaCa-2 cells at less than 10 uM incubated for 7 to 10 days by crystal violet staining based assay; type: functional, cell-based; conditions: time 7-10 day
[14] = system: PANC-1; assay: Cytotoxicity against human PANC-1 cells at less than 10 uM incubated for 7 to 10 days by crystal violet staining based assay; type: functional, cell-based; conditions: time 7-10 day
[15] = system: HCT-116; assay: Induction of PARylation in human HCT-116 cells at 20 uM incubated for 2 to 8 hrs by Western blotting analysis; type: functional, cell-based; conditions: time 2-8 hrs

Structure (SMILES)	Activity [6]	IC50 [7] [µM]	Activity [8]	Activity [9]	IC50 [10] [µM]	IC50 [11] [µM]	further results
CC[C@@]1(O)C(=O)OCc2c1cc1n(c2=O)Cc2cc3ccccc3nc2-1							Activity [1]: Active; Activity [2]: inactive; Activity [3]: Tde; Activity [4]: Active
CN(C)c1ccc2cc3ccc(N(C)C)cc3nc2c1							Activity [5]: Active
O=C1c2cccc3cccc(c23)C(=O)N1CCSc1nnc(CCCn2nc(Cc3ccccc3)c3ccccc3c2=O)o1	Active	> 25	Active	Active	> 25	> 25	
O=C1c2cccc3cccc(c23)C(=O)N1CCSc1nnc(CCCn2nc(Cc3ccc(F)cc3)c3ccccc3c2=O)o1	Active	> 25	Active	Active	> 25	> 25	
COc1cccc2c1C(=O)c1c(O)c3c(c(O)c1C2=O)C[C@@](O)(C(=O)CO)C[C@@H]3O[C@H]1C[C@H](N)[C@H](O)[C@H](C)O1							Activity [5]: Active
O=C1c2cccc3cccc(c23)C(=O)N1CCCc1nnc(CCn2nc(Cc3ccc(F)cc3)c3ccccc3c2=O)o1	Active	> 25	Active	Active	> 25	> 25	
COc1ccc(Cc2nn(CCc3nnc(SCCN4C(=O)c5cccc6cccc(c56)C4=O)o3)c(=O)c3ccccc23)cc1	Active	> 25	Active	Active	> 25	> 25	
O=C1c2cccc3cccc(c23)C(=O)N1CCSc1nnc(CCn2nc(Cc3ccccc3)c3ccccc3c2=O)o1		> 25			> 25	> 25	
COc1ccc(Cc2nn(CCCc3nnc(SCCN4C(=O)c5cccc6cccc(c56)C4=O)o3)c(=O)c3ccccc23)cc1	Active	> 25	Active	Active	> 25	> 25	
COc1ccc(Cc2nn(Cc3nnc(SCCN4C(=O)c5cccc6cccc(c56)C4=O)o3)c(=O)c3ccccc23)cc1		13			14	13.5	Activity [12]: Active; Activity [13]: Active; Activity [14]: Active
O=C1c2cccc3cccc(c23)C(=O)N1CCSc1nnc(Cn2nc(Cc3ccccc3)c3ccccc3c2=O)o1	Active	> 25	Active	Active	> 25	> 25	
O=C1c2cccc3cccc(c23)C(=O)N1CCSc1nnc(CCn2nc(Cc3ccc(F)cc3)c3ccccc3c2=O)o1		13			11	12.5	Activity [12]: Active; Activity [13]: Active; Activity [14]: Active
O=C1c2cccc3cccc(c23)C(=O)N1CCCc1nnc(Cn2nc(Cc3ccc(F)cc3)c3ccccc3c2=O)o1	Active	> 25	Active	Active	> 25	> 25	
O=C1NC(=O)c2cccc3cccc1c23		20			18	15	
O=C(c1cc(Cc2n[nH]c(=O)c3ccccc23)ccc1F)N1CCN(C(=O)C2CC2)CC1 [OLAPARIB]		7			8	9	Activity [15]: inactive
